Reference: patent publication US20070190628A1, “Yeast food composition for fuel ethanol production” (priority 2006, published 2007)

Legend:
Assay type in all cases: cell-based, Saccharomyces cerevisiae
[1] = system: active dry yeast “y”; assay: Fermentation performance of commercial active dry yeasts in normal gravity corn mash; conditions: strain “y”
Description: (§1) The effects of the defined urea plus salts-based yeast food on fermentation performance of seven commercial active dry yeasts currently used by the fuel alcohol industry (Bellisimi et al., 2005, Am. Soc. Brew. Chem. J. Vol. 63, pp. 107-112) and designated herein as strains “b”, “d”, “e”, “w”, “x”, “y”, and “z”, were assessed in normal gravity corn mash prepared as described in Example 1. The commercial active dry yeasts were assessed with the following corn mash supplanted as follows: (a) 8 mM urea (control), or (b) 1% yeast extract, or (c) 8 mM urea supplemented with the defined urea plus salts yeast food of the present invention. The fermentation methods were followed as outlined in Example 4. Fermentation rates were determined by repeated sampling and sample processing at specific time intervals as described in Example 1.

[2] = system: active dry yeast “w”; assay: as above; conditions: strain “w”
Description: as §1

[3] = system: active dry yeast “x”; assay: as above; conditions: strain “x”
Description: as §1

[4] = system: active dry yeast “e”; assay: as above; conditions: strain “e”
Description: as §1

[5] = system: active dry yeast “b”; assay: as above; conditions: strain “b”
Description: as §1

[6] = system: active dry yeast “d”; assay: as above; conditions: strain “d”
Description: as §1

[7] = system: active dry yeast “z”; assay: as above; conditions: strain “z”
Description: as §1

[8] = system: active dry yeast “z”; assay: Fermentation of very high gravity corn mash with nutrient supplements (Example 4)
Description: The effects of the optimized defined urea plus salts-based nutrient supplement, i.e., defined yeast food, developed in Example 3 for corn mash fermentations, were assessed by comparisons of fermentation rates and ethanol production in normal gravity corn mashes and very high gravity corn mashes that were (a) supplemented with 16 mM urea only, or (b) yeast extract, or (c) supplemented with 16 mM urea plus the defined yeast food from Example 3 which in this set of studies, contained 1.6 g/L (NH4)2HPO4, 0.32 g/L (NH4)2SO4, 0.049 g/L MgSO4.7H2O, and 0.273 mg/L ZnSO4.7H2O.
Normal density corn mashes were prepared as described in Example 1 and were determined to contain about 18-20 g dissolved solids per 100 mL mash as determined by density meter analysis. […] The mash thus prepared contained 30-32 g of dissolved solids/100 mL as determined by density meter analysis. […]
Each study was commenced by removing fermentors containing either normal gravity corn mash or very high gravity corn mash from 4° C. storage, connecting them to 30° C. water bath circulators and continually mixing the corn mash contents therein until the temperature of each mash was 30° C. […] Fermentation performance in all treatments was assessed by repeated sampling and analyses of the mashes during the fermentation periods as described in Example 1.

[9] = complete disappearance of 20 g of dissolved solids/100 mL

## NC(N)=O [urea]
[1]; normal gravity corn mash
  Fermentation rate: 0.83 ± 0.01 g/100 mL/hr
[1]; [9]
  Fermentation time: 48 h
[2]; normal gravity corn mash
  Fermentation rate: 0.82 ± 0.02 g/100 mL/hr
[2]; [9]
  Fermentation time: 48 h
[3]; normal gravity corn mash
  Fermentation rate: 0.80 ± 0.06 g/100 mL/hr
[3]; [9]
  Fermentation time: 48 h
[4]; normal gravity corn mash
  Fermentation rate: 0.67 ± 0.01 g/100 mL/hr
[4]; [9]
  Fermentation time: 72 h
[5]; normal gravity corn mash
  Fermentation rate: 0.73 ± 0.04 g/100 mL/hr
[5]; [9]
  Fermentation time: 72 h
[6]; normal gravity corn mash
  Fermentation rate: 0.74 ± 0.03 g/100 mL/hr
[6]; [9]
  Fermentation time: 48 h
[7]; normal gravity corn mash
  Fermentation rate: 0.79 ± 0.01 g/100 mL/hr
[7]; [9]
  Fermentation time: 48 h
[8]
  time after which fermentation became “stuck”: 72 h
